Where two headings read alike, the source gives them in different places.
Experiments:
[1] = test system: non-transfected and Tm5NM1 stably transfected MEFs; experiment: MTT viability in non-transfected versus Tm5NM1 stably transfected MEFs; type: cell-based, mouse; settings: 48 hr, FIG. 1
Method: FIG. 1: Activity of selected compounds against Tm5NM1/2 transfected mouse embryonic fibroblasts versus non-transfected MEFs.
Compounds 4001, 4010, 4014, 4008 and 4015 were then screened against non-transfected and Tm5NM1 stably transfected MEFs. Briefly, MEFs were transfected with pEYFP-C1/Tm5NM1 constructs using the Amaxa nucleofector apparatus (program A-023) and MEF nucleofector kit 1 (Lonza) according to the manufacturer's instructions. Cell viability assays were also conducted to assess the anti-proliferative effects of the anti-tropomyosin compounds. Briefly, cells (1×10^3/well) were plated (96-well) and treated (48 hr) with anti-tropomyosin compounds and viability measured using 3-(4,5-dimethylthiazol-2-yl)-2, 5-diphenylterazolium bromide MTT. Cell viability was normalized to control (vehicle alone) and dose-response curves, and half maximal effective concentration (EC50) values were determined using Graph Pad Prism 5 (nonlinear regression sigmoidal dose-response variable slope).

[2] = test system: PC3 prostate cancer cells; experiment: Anti-proliferative assay, cell-titre luminescent reagent, 72 h (GVK-BIO); type: cell-based
Method in brief: (§1)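 Cells were plated at predetermined densities in ATCC-recommended medium and allowed to attach for 24 h at 37 °C, 5% CO2 before dosing. The compound series was tested either at 30, 3, 0.3 and 0.03 μM with IC50 from linear regression of semi-log percent-of-control plots, or at 30, 10, 3, 1, 0.3 and 0.1 μM with EC50 from variable-slope sigmoidal nonlinear fits.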

[3] = test system: A549 non-small cell lung carcinoma cells; experiment: as above; type: cell-based; settings: Homo sapiens, read-out: IC50/μM Lung (NSLC) A549
Method in brief: as §1

[4] = test system: CaCo2 colorectal cancer cells; experiment: as above; type: cell-based; settings: Homo sapiens
Method in brief: as §1

SK-Mel-28 melanoma cells = experiment: as above; type: cell-based; settings: Homo sapiens
Method in brief: as §1

[5] = test system: SK-N-SH neuroblastoma cells; experiment: as above; type: cell-based; settings: Homo sapiens
Method in brief: as §1

[6] = test system: MDA-MB-231 triple negative breast cancer cells; experiment: as above; type: cell-based; settings: Homo sapiens
Method in brief: as §1

[7] = test system: DU145 prostate cancer cells; experiment: as above; type: cell-based; settings: Homo sapiens
Method in brief: as §1

[8] = test system: melanoma (SK-Mel-28) cells; experiment: Cell viability assay (MTT, 48 hr); type: cell-based; settings: Homo sapiens, 48 hr treatment, read-out: IC50 (μM) SKMEL28
Method: (§2) Cell viability assays were also conducted to assess the anti-proliferative effects of the anti-tropomyosin compounds 4001-4015. Briefly, cells (1×10^3/well) were plated (96-well) and treated (48 hr) with anti-tropomyosin drug and viability measured using 3-(4,5-dimethylthiazol-2-yl)-2,5-diphenylterazolium bromide MTT. Cell viability was normalized to control (vehicle alone) and dose-response curves, and half maximal effective concentration (EC50) values were determined using Graph Pad Prism 5 (nonlinear regression sigmoidal dose-response variable slope).

[9] = test system: neuroblastoma (SH-EP) cells; experiment: Cell viability assay (MTT, 48 hr); type: cell-based; settings: 48 hr treatment, read-out: IC50 (μM) SHEP
Method: as §2

[10] = test system: total actin cytoskeleton in SK-N-SH neuroblastoma cells; experiment: Microfilament disruption assay, 488-Atto-Phallodin imaging and filament quantitation; type: cell-based; settings: 0-40 μM, 24 h, FIG. 2
Method: (§3) FIG. 2: Imaging and quantitation of actin filaments in SK—N—SH neuroblastoma cells treated with compound (A) 4093 and (B) 4113. Cells were stained with 488-Atto-Phallodin and DAPI to visualize the actin filament bundles and the nucleus, respectively. Shown in the top panel is a representative grey scale immunofluorescent image from control (vehicle alone), 5 μM and 10 μM treated cells. […] The coloured lines indicate the detected actin filaments. Also shown is the quantitation of cell number, filament number/cell and filament number/cell area ([…]). […]
(§4) The ability of compounds 4093 and 4113 to disrupt the total actin cytoskeleton (FIG. 2) and to specifically target Tm5NM1-containing actin filaments (FIG. 3) was assessed in vitro using the microfilament disruption assay.
(§5) Briefly, SK-N-SH neuroblastoma cells were seeded at 1800 cells/well in a 384 Perkin Elmer High Content Imaging “View” plate and left to plate down 24 h prior to treatment. […] Images were then exported and changes in the organization and numbers of actin filaments within the cell were quantitated using a linear feature detection algorithm developed by the CSIRO. […] It is these “ridge lines” that correspond to actin filament bundles and allow us to quantitate the number of filaments per cell.

[11] = test system: Tm5NM1-containing actin filaments in SK-N-SH neuroblastoma cells; experiment: Microfilament disruption assay, γ9d staining imaging and filament quantitation; type: cell-based; settings: 0-40 μM, 24 h, FIG. 3
Method: as §3, with “FIG. 3:” for “FIG. 2:”, “with γ9d (sheep polycolonal, 1:100) followed by 488-conjugated secondary (1:1000)” for “with 488-Atto-Phallodin”, “the Tm5NM1 containing” for “the actin”
as §4, §5

| IC50 ([2]; 30, 3, 0.3 and 0.03 μM, linear regression (Tables 2-4)) [µM] | IC50 ([3]; A549, 72 h, 30, 3, 0.3 and 0.03 μM, linear regression (Tables 2-4)) [µM] | IC50 ([4]; Caco-2, 72 h, 30, 3, 0.3 and 0.03 μM, linear regression (Tables 2-4)) [µM] | IC50 (SK-Mel-28 melanoma cells; SK-MEL-28, 72 h, 30, 3, 0.3 and 0.03 μM, linear regression (Tables 2-4)) [µM] | IC50 ([5]; SK-N-SH, 30, 3, 0.3 and 0.03 μM, linear regression (Tables 2-4)) [µM] | IC50 ([6]; MDA-MB-231, 72 h, 30, 3, 0.3 and 0.03 μM, linear regression (Tables 2-4)) [µM] | IC50 ([7]; DU-145, 72 h, 30, 3, 0.3 and 0.03 μM, linear regression (Tables 2-4)) [µM] | IC50 [8] [µM] | IC50 [9] [µM] | IC50 ([2]; 30, 10, 3, 1, 0.3 and 0.1 μM, nonlinear regression (Table 5)) [µM] | IC50 ([3]; A549, 72 h, 30, 10, 3, 1, 0.3 and 0.1 μM, nonlinear regression (Table 5)) [µM] | IC50 ([4]; Caco-2, 72 h, 30, 10, 3, 1, 0.3 and 0.1 μM, nonlinear regression (Table 5)) [µM] | IC50 (SK-Mel-28 melanoma cells; SK-MEL-28, 72 h, 30, 10, 3, 1, 0.3 and 0.1 μM, nonlinear regression (Table 5)) [µM] | IC50 ([5]; SK-N-SH, 30, 10, 3, 1, 0.3 and 0.1 μM, nonlinear regression (Table 5)) [µM] | IC50 ([6]; MDA-MB-231, 72 h, 30, 10, 3, 1, 0.3 and 0.1 μM, nonlinear regression (Table 5)) [µM] | IC50 ([7]; DU-145, 72 h, 30, 10, 3, 1, 0.3 and 0.1 μM, nonlinear regression (Table 5)) [µM] | SMILES | Selectivity: toxicity against primary MEFs versus MEFs stably transfected with Tm5NM1/2 [1] | Disruption of the total actin cytoskeleton [10] | Disruption of Tm5NM1-containing actin filaments [11] |
| --- | --- | --- | --- | --- | --- | --- | --- | --- | --- | --- | --- | --- | --- | --- | --- | --- | --- | --- | --- |
| 3.7 | 2.9 | 3.9 | 3.2 | 3 | 2.5 | 3.6 | 4 | 4.3 | – | – | – | – | – | – | – | CN(C)CCCn1ccc2cc(Oc3cccc(C(=O)Nc4ccccc4)c3)ccc21 [Compound 4014, 3-((1-(3-(dimethylamino)propyl)-1H-indol-5-yl)oxy)-N-phenylbenzamide] | less toxicity noted against primary mouse embryonic fibroblasts (MEFs) compared with MEFs stably transfected with Tm5NM1/2 | – | – |
| – | – | – | – | – | – | – | – | – | 11.4 | 5.2 | 4.6 | 0.9 | 1.7 | 2.8 | 5.4 | Cc1c(C)n(CCCN2CCN(C)CC2)c2ccc(CN3CCN(CCc4ccc5c(c4)OCO5)CC3)cc12 [Compound 4113, 5-((4-(2-(benzo[d][1,3]dioxol-5-yl)ethyl)piperazin-1-yl)methyl)-2,3-dimethyl-1-(3-(4-methylpiperazin-1-yl)propyl)-1H-indole] | – | disrupt both the total actin cytoskeleton and Tm5NM1-containing actin filaments in a dose-dependent manner | disrupt both the total actin cytoskeleton and Tm5NM1-containing actin filaments in a dose-dependent manner |
